Reference: patent publication US20110028401A1, “CRIPTO BLOCKING MOLECULES AND THERAPEUTIC USES THEREOF” (CONSIGLIO NAZIONALE DELLE RICERCHE, priority 2009, published 2011)

Columns and labels:
Mouse ESC = assay: In vitro dopamine and DOPAC levels by HPLC after KCl; format: cell-based; settings: 14 days in vitro
Protocol: Dopamine release and turnover was determined in vitro using reverse phase high performance liquid chromatography (HPLC). Mouse ESC were differentiated in a 12 well plate according to the methodology depicted in FIG. 7(a), in the presence of either the Control peptide of Cripto BP. After 14 days in vitro, media was replaced with 200 ul of N2 media supplemented with 56 mM KCl for 30 min. The media was then collected and stabilized with 20 ul of buffer containing 0.4 M perchloric acid containing 7.9 mM sodium metabisulphate and 1.34 mM disodium EDTA. On the day of analysis the samples were centrifuged and the supernatant transferred to HPLC vials and placed in an autosampler for injection onto the HPLC. The HPLC consisted of a LC-20AT pump (Shimadzu), SIL-20A Autosampler (Shimadzu) and C18 reverse phase column (Bio-Rad, Hercules, USA). Detection was via a 3 mm VT-03 flow cell with glassy carbon working electrode (Antec Leyden) and Decade II Electrochemical Detector (Antec Leyden). The mobile phase consisted of 17% v/v methanol in purified deionized water containing 70 mM KH2PO4, 0.5 mM EDTA and 8.0 mM sulfonic acid, pH 3.0 and was run at a flow rate of 0.5 ml/min. DA turnover was expressed as the concentration of DOPAC to DA [DOPAC/DA]. Analysis was performed on triplicate wells on three independent differentiation experiments.

wild-type EBs = assay: Cardiomyogenesis (beating areas) in wild-type embryoid bodies; format: cell-based, mouse
Protocol: Undifferentiated ESCs were cultured as previously described^55.
Given the neutralizing activity of the peptide, the authors then asked whether Cripto BP was able to block ALK-4/Smad2-dependent Cripto signalling in ESCs and thereby mimic the absence of cripto in an ESC differentiation assay. The authors first evaluated whether Cripto BP was able to prevent Cripto-induced Smad2 phosphorylation of serum starved 2 day-old cripto^−/− Embryoid Bodies (EBs), as assessed by Western blot analysis. Recombinant soluble Cripto protein stimulated Smad2 phosphorylation^35. This effect was not modified by the presence of increasing amounts of either Cripto DP or CP (2.5 μM and 25 μM) (FIG. 6a). […] The authors thus asked whether the neutralizing activity of Cripto BP on endogenous Cripto signalling was also able to block cardiomyogenesis in wild-type ESCs. To this end, 2 day-old wild-type EBs were treated with increasing amounts of either CP or Cripto BP, ranging from 5.0 to 25 μM, and the percentage of EBs containing beating areas was scored from days 8 to 12 of the differentiation (n=˜60 EBs/group; FIG. 6b). Given that the peptides were dissolved in DMSO, control untreated EBs were compared with DMSO treated EBs.

Parkinsonian rats = assay: TH-ir neuron counts within striatal grafts; format: in vivo, rat; settings: tumor-free animals
Protocol: Two days prior to grafting animals began cyclosporine-A immune suppression (10 mg/kg). Fourteen days post-lesioning selected animals (determined by behavioural rotations) were again anesthetized and stereotaxically injected with 1 μl of cell suspension at each of the 4 sites as previously described^29. Stereotaxic coordinates of 1st & 2nd Injection (from bregma): anterior 0.2 mm, lateral 3.0 mm, ventral 4.5 and 5.0 mm; 3rd & 4th Injection, anterior 1.0 mm, lateral 2.5 mm, ventral 4.5 and 5.0 mm; incisor bar 0 mm^57). ESCs were differentiated as outlined in FIG. 7a. In brief, ESC colonies were dissected away from the stromal feeder layer and dissociated using collagenase/dispase with agitation (700 μg/ml, Roche, for 20 min, 80 rpm). Cells were subsequently resuspended at a density of 3,000 cells/μl ready for grafting. Five rats received Sham injections (4 μl N2 media, 1 μl/site), 16 rats received a total of 12,000 ESCs (4×1 μl grafts) pre-treated with the Control peptide (of which 9 of these animals also received infusion of the Control peptide) and a further 16 rats received grafts pretreated with the Cripto blocking peptide (9 animals receiving infusion of the Cripto BP).
The peptide infusion was performed by implantation of a cannula into the striatum (Alzet brain infusion kit) connected to a subcutaneously placed osmotic minipump (Alzet) prefilled with either CP or Cripto BP. […]

[1] = 56 mM KCl 30 min, compared to Control peptide

SMILES: C[S+]([O-])CCC(N)C(=O)N[C@@H](CSCc1ccccc1)C(=O)N[C@@H](CSCc1ccccc1)C(=O)N[C@@H](CCCCNC(=O)[C@H](CSCc1ccccc1)NC(=O)[C@H](CSCc1ccccc1)NC(=O)[C@@H](N)CC[S+](C)[O-])C(=O)N[C@@H](CCCCNC(=O)[C@H](CCCCNC(=O)[C@H](CSCc1ccccc1)NC(=O)[C@H](CSCc1ccccc1)NC(=O)[C@@H](N)CC[S+](C)[O-])NC(=O)[C@H](CSCc1ccccc1)NC(=O)[C@H](CSCc1ccccc1)NC(=O)[C@@H](N)CC[S+](C)[O-])C(=O)NCC(=O)O (stereo partly shown) [Cripto BP]
- KCl-evoked release of DOPAC (Mouse ESC; [1]): significantly increases
- KCl-evoked release of dopamine (Mouse ESC; [1]): significantly increases
- dopamine turnover (ratio of DOPAC to DA) (Mouse ESC): able to utilize DA
- rhythmically contracting (beating) EBs (wild-type EBs; 25 μM peptide, wild-type EBs, mean±SD): 3.7%±3.5
- effect on the percentage of beating EBs (cardiomyogenesis) (wild-type EBs; 5.0 to 25 μM, scored days 8 to 12): dose-dependent inhibition of cardiomyogenesis
- TH+ cell counts within the graft (Parkinsonian rats; pre-treated ESCs + peptide infusion): 10815±887
- TH+ cells within the graft (Parkinsonian rats; pre-treated ESCs without infusion): 7491±1488
